Experiments:
Experiment in all cases: combination Emax (second highest fraction inhibited in the dose matrix, 72 h); higher = more inhibition; extreme values may be limits of the assay
[1] = system: HCC1806 (Breast Carcinoma)
Outline: (§1)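 Cell lines in DMEM/F12 or RPMI with 10% FBS were plated in 1536-well plates, held 24 hours at 37°C, 5% CO2, then given two-drug dose matrices for 72 hours (DMSO typically 0.2%). Viability was read by CellTiter-Glo 2.0 luminescence and scaled as inhibition from 0 (vehicle wells) to 1 (blank wells). Combination Emax is the second-highest inhibition in the matrix; Bliss excess is observed combination effect minus expected EA + EB − EA·EB, EA and EB being single-agent effects.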

ES4 (Ewing's Sarcoma) = system: ES4 (Ewing's Sarcoma)
Outline: as §1

[2] = system: TCCSUP (Bladder Carcinoma)
Outline: as §1

[3] = system: RC-K8 (B-Cell Non-Hodgkin's Lymphoma)
Outline: as §1

[4] = system: Daoy (Other Solid Carcinomas)
Outline: as §1

[5] = system: SK-ES-1 (Ewing's Sarcoma)
Outline: as §1

NOS-1 (Osteosarcoma) = system: NOS-1 (Osteosarcoma)
Outline: as §1

[6] = system: SNU-5 (Gastric Carcinoma)
Outline: as §1

[7] = system: B-CPAP (Thyroid Gland Carcinoma)
Outline: as §1

[8] = system: COLO-205 (Colorectal Carcinoma)
Outline: as §1

[9] = system: DEL (T-Cell Non-Hodgkin's Lymphoma)
Outline: as §1

[10] = system: CaR-1 (Colorectal Carcinoma)
Outline: as §1

[11] = system: UM-UC-3 (Bladder Carcinoma)
Outline: as §1

[12] = system: TE-9 (Esophageal Squamous Cell Carcinoma)
Outline: as §1

[13] = system: RO82-W-1 (Thyroid Gland Carcinoma)
Outline: as §1

[14] = system: KURAMOCHI (Ovarian Carcinoma)
Outline: as §1

T98G (Glioblastoma) = system: T98G (Glioblastoma)
Outline: as §1

[15] = system: CAL-148 (Breast Carcinoma)
Outline: as §1

[16] = system: Ramos-2G6-4C10 (Burkitt's Lymphoma)
Outline: as §1

[17] = system: NCI-H82 (Small Cell Lung Carcinoma)
Outline: as §1

Structure (SMILES)	combination Emax [1]	combination Emax (ES4 (Ewing's Sarcoma))	combination Emax [2]	combination Emax [3]	combination Emax [4]	combination Emax [5]	combination Emax (NOS-1 (Osteosarcoma))	combination Emax [6]	combination Emax [7]	combination Emax [8]	combination Emax [9]	combination Emax [10]	combination Emax [11]	combination Emax [12]	combination Emax [13]	combination Emax [14]	combination Emax (T98G (Glioblastoma))	combination Emax [15]	combination Emax [16]	combination Emax [17]
CC(=O)c1c(C)c2cnc(Nc3ccc(N4CCNCC4)cn3)nc2n(C2CCCC2)c1=O [Palbociclib] + CN(CC[C@H](CSC1=CC=CC=C1)NC2=C(C=C(C=C2)S(=O)(=O)NC(=O)C3=CC=C(C=C3)N4CCC(CC4)[C@H](C5=CC=CC=C5C6=CC=C(C=C6)Cl)O)S(=O)(=O)C(F)(F)F)CCO [AZD4320] (first compound max 10 µM, 7x7, partner max 1 µM)	0.442	0.485	0.364	0.838	0.368	0.956	0.952	0.334	0.59	0.868	0.916	–	–	–	–	–	–	–	–	–
COc1nnc2ccc(N3CCC(c4ccc(OCCN5CCN(C)C(=O)[C@H]5C)cc4)CC3)nn12 [AZD5153] + CN(CC[C@H](CSC1=CC=CC=C1)NC2=C(C=C(C=C2)S(=O)(=O)NC(=O)C3=CC=C(C=C3)N4CCC(CC4)[C@H](C5=CC=CC=C5C6=CC=C(C=C6)Cl)O)S(=O)(=O)C(F)(F)F)CCO [AZD4320] (first compound max 1 µM, 7x7, partner max 1 µM)	0.588	0.795	0.297	1	0.627	0.871	0.936	0.506	0.925	0.95	0.844	–	–	–	–	–	–	–	–	–
Cc1c2c(nn1C)CSCc1cc(n(C)n1)CSc1cc(c3ccccc3c1)OCCCc1c(C(=O)O)n(C)c3c-2c(Cl)ccc13 [AZD5991] + Cn1cnc2c(F)c(Nc3ccc(Br)cc3Cl)c(C(=O)NOCCO)cc21 [Selumetinib] (first compound max 1 µM, 7x7, partner max 3 µM)	0.667	–	0.227	0.239	0.278	0.809	0.895	0.495	0.299	0.828	1	0.168	0.28	0.162	0.311	0.485	0.249	0.329	0.998	0.922
C[C@@H](c1ccc2nccn2c1)n1nnc2ncc(-c3cnn(C)c3)nc21 [Savolitinib] + CN(CC[C@H](CSC1=CC=CC=C1)NC2=C(C=C(C=C2)S(=O)(=O)NC(=O)C3=CC=C(C=C3)N4CCC(CC4)[C@H](C5=CC=CC=C5C6=CC=C(C=C6)Cl)O)S(=O)(=O)C(F)(F)F)CCO [AZD4320] (first compound max 1 µM, 7x7, partner max 1 µM)	0.436	0.557	0.194	0.504	0.139	0.758	0.506	1	0.276	0.566	0.217	–	–	–	–	–	–	–	–	–
C=CCn1c(=O)c2cnc(Nc3ccc(N4CCN(C)CC4)cc3)nc2n1-c1cccc(C(C)(C)O)n1 [AZD1775] + C[C@@H]1COCCN1C2=NC(=NC(=C2)C3(CC3)[S@](=N)(=O)C)C4=C5C=CNC5=NC=C4 [AZD6738] (first compound max 1 µM, partner max 10 µM)	0.961	0.826	0.755	–	0.944	0.926	0.622	0.934	0.811	0.863	1	0.525	0.682	0.67	0.445	0.743	0.873	1	1	0.979
Cc1cc2ncnn2cc1Nc1ncc2c(n1)n(C1CCOCC1)c(=O)n2C [AZD7648] + CN(C)CCCOc1ccc(-c2ccc3ncc4c(c3c2)n(C2CCOCC2)c(=O)n4C)cn1 [AZD0156] (first compound max 10 µM, 7x7, partner max 1 µM)	0.271	0.0963	0.197	–	0.313	0.503	0.225	0.376	0.286	0.39	0.412	0.266	0.236	0.183	0.394	0.192	0.266	0.424	0.292	0.293
Cc1cc2ncnn2cc1Nc1ncc2c(n1)n(C1CCOCC1)c(=O)n2C [AZD7648] + C[C@@H]1COCCN1C2=NC(=NC(=C2)C3(CC3)[S@](=N)(=O)C)C4=C5C=CNC5=NC=C4 [AZD6738] (first compound max 10 µM, 7x7, partner max 10 µM)	0.928	0.686	0.569	–	0.784	0.816	0.351	0.931	0.439	0.266	0.977	0.649	0.41	0.286	0.478	0.567	0.859	0.828	0.944	0.899
Cc1c2c(nn1C)CSCc1cc(n(C)n1)CSc1cc(c3ccccc3c1)OCCCc1c(C(=O)O)n(C)c3c-2c(Cl)ccc13 [AZD5991] + C1CN(CCC1(C(=O)N[C@@H](CCO)C2=CC=C(C=C2)Cl)N)C3=NC=NC4=C3C=CN4 [Capivasertib] (first compound max 1 µM, 7x7, partner max 3 µM)	0.528	0.19	0.25	0.161	0.345	0.854	0.79	0.288	–	0.313	1	0.223	0.216	–	0.246	0.307	0.3	1	1	0.976
Cc1cc2ncnn2cc1Nc1ncc2c(n1)n(C1CCOCC1)c(=O)n2C [AZD7648] + CCN(CCO)CCCOc1ccc2c(Nc3cc(CC(=O)Nc4cccc(F)c4)[nH]n3)ncnc2c1 [AZD2811] (first compound max 10 µM, 7x7, partner max 1 µM)	0.281	0.279	0.387	–	0.445	0.964	0.232	0.354	0.283	0.897	0.727	0.472	0.298	0.234	0.358	0.238	0.467	0.911	0.789	0.595
CCc1c2c(nc3ccc(O)cc13)-c1cc3c(c(=O)n1C2)COC(=O)[C@]3(O)CC [SN-38] + CN(C)CCCOc1ccc(-c2ccc3ncc4c(c3c2)n(C2CCOCC2)c(=O)n4C)cn1 [AZD0156] (first compound max 0.3 µM, 7x7, partner max 1 µM)	0.91	0.947	0.743	–	1	1	0.0879	0.945	0.867	0.509	1	0.876	0.978	0.395	0.46	0.659	0.546	0.912	0.98	0.824
Cc1cc2ncnn2cc1Nc1ncc2c(n1)n(C1CCOCC1)c(=O)n2C [AZD7648] + C=CCn1c(=O)c2cnc(Nc3ccc(N4CCN(C)CC4)cc3)nc2n1-c1cccc(C(C)(C)O)n1 [AZD1775] (first compound max 10 µM, partner max 1 µM)	0.894	0.441	0.375	–	0.869	0.946	0.432	0.558	0.479	0.678	1	0.551	0.287	0.275	0.46	0.664	0.711	0.928	0.998	0.853
CN(C)CCCOc1ccc(-c2ccc3ncc4c(c3c2)n(C2CCOCC2)c(=O)n4C)cn1 [AZD0156] + CCN(CCO)CCCOc1ccc2c(Nc3cc(CC(=O)Nc4cccc(F)c4)[nH]n3)ncnc2c1 [AZD2811] (first compound max 1 µM, 7x7, partner max 1 µM)	0.124	0.159	0.111	–	0.303	0.952	0.119	0.162	0.189	0.854	0.684	0.145	0.155	0.0784	0.308	0.115	0.33	0.935	0.528	0.45
CCN(CCO)CCCOc1ccc2c(Nc3cc(CC(=O)Nc4cccc(F)c4)[nH]n3)ncnc2c1 [AZD2811] + C[C@@H]1COCCN1C2=NC(=NC(=C2)C3(CC3)[S@](=N)(=O)C)C4=C5C=CNC5=NC=C4 [AZD6738] (first compound max 1 µM, 7x7, partner max 10 µM)	0.931	0.666	0.604	–	0.798	0.968	0.288	0.907	0.407	0.849	0.99	0.469	0.429	0.278	0.405	0.569	0.799	1	0.911	0.922
CCN(CCO)CCCOc1ccc2c(Nc3cc(CC(=O)Nc4cccc(F)c4)[nH]n3)ncnc2c1 [AZD2811] + C=CCn1c(=O)c2cnc(Nc3ccc(N4CCN(C)CC4)cc3)nc2n1-c1cccc(C(C)(C)O)n1 [AZD1775] (first compound max 1 µM, partner max 1 µM)	0.867	0.377	0.352	–	0.827	0.971	0.244	0.581	0.334	0.854	1	0.223	0.258	0.207	0.356	0.646	0.608	0.994	0.957	0.901

Reference: the supplement of paper PMC11061612
